# Test results from publication PMC6127092, “Polymeric nanocapsules embedded with ultra-small silver nanoclusters for synergistic pharmacology and improved oral delivery of Docetaxel” (Scientific Reports, 2018).
# Tests used:
# [1] = Biocompatibility, trypan blue assay; assay type: cell-based; conditions: fresh human macrophages isolated from blood
# Method: The biocompatibility of the NCs and DTX-Ag-NCPs was assessed against the fresh human macrophages. The macrophages were isolated from fresh human blood using Ficoll-Gastrografin gradient method.^6 Macrophages were suspended in RPMI media and incubated in CO2 incubator.
# [2] = rabbit, in vivo, cited from earlier work
# [3] = test system: Swiss albino mice; conditions: mouse, in vivo
# Method: After 14 days, the complete blood count (CBC) was performed on blood and plasma was carefully collected and LFTs, RFTs, glucose, total protein and cholesterol were analyzed.
# [4] = test system: Swiss albino mice; conditions: mouse, in vivo, po, 10 mg/kg
# Method: (§1) Female Swiss albino mice weighing 32 ± 5 g, were divided into 4 groups (n = 5) and were kept to free access of food and water at controlled environment. […] The dose (10 mg/kg) was administered orally through gavage. […] After 14 days, the blood was withdrawn for serum biochemistry analysis and mice were sacrificed for tissue histology studies[49].
# [5] = test system: breast cancer (MDA-MB-231) cell line; assay: Cytotoxic synergism study, MTT assay; conditions: MDA-MB-231, MTT, 24 h
# Method: The cells were seeded in 96-well plate having 6000 cells/well in fetal bovine serum supplemented Dulbecco’s Modified Eagles Medium (DMEM/FBS) solution. […] Untreated cells with 100% viability were taken as control and the cells without addition of MTT were used as blank to calibrate the instrument. IC50 values for each formulation was calculated using Graphpad Prism 6.02 software[19].
# [6] = test system: Swiss albino mice; assay: Acute oral toxicity (OECD 425), observation; conditions: 10 mg/kg, 14 days
# Method: as §1
# [7] = Oral bioavailability and pharmacokinetics; assay type: in vivo, rabbits; conditions: rabbit
# Method: All the animal studies were conducted in compliance to the approved protocol of Bio-Ethical Committee of Quaid-i-Azam University Islamabad, Pakistan (Protocol No. BEC-FBS-QAU-20). Oral bioavailability studies of NCs were conducted in rabbits. The rabbits were divided into 3 groups (n=5) and kept in the animal house with free access to food and water. […] The samples (10mg/kg) were orally administered through gavage needle. Blood samples were withdrawn from ear marginal vein of each rabbit at predefined time interval using 1 ml sterile syringe each time. The plasma was separated from blood samples and stored at -20 °C till further used for analysis.^7,8 The drug was extracted from plasma samples and was analyzed using HPLC method described earlier.
# [8] = In vitro DTX release and release model fitting; assay type: physicochemical
# From the text: Error bar represents Mean ± S.D. of three experiments.
# To further probe into the release mechanism, different mathematical models were applied to the dissolution data.
# [9] = model fitted to dissolution data
compound,measurement,setting,value
"CC(=O)O[C@@]12CO[C@@H]1C[C@H](O)[C@@]1(C)C(=O)[C@H](O)C3=C(C)[C@@H](OC(=O)[C@H](O)[C@@H](NC(=O)OC(C)(C)C)c4ccccc4)C[C@@](O)([C@@H](OC(=O)c4ccccc4)[C@H]21)C3(C)C [DTX, Docetaxel]","viability at 24 h, 50 µg/ml",[1],~65%
same,Minimum toxic concentration,[2]; iv,2700 ng/mL
same,Minimum effective concentration,[2],35 ng/mL
same,Hb,[3],13.20 ± 6.37
same,MCH,[3],15.54 ± 4.35
same,MCV,[3],57.57 ± 5.52
same,MPV,[3],7.11 ± 4.91
same,PCV,[3],54.37 ± 11.93
same,Platelets,[3],632 ± 87.57
same,RBC,[3],6.86 ± 4.91
same,RDW %,[3],16.92 ± 6.63%
same,Serum glutamic pyruvic transaminase (SGPT),[3],highest level
same,WBC,[3],12.45 ± 7.63
same,"Visible changes in skin, fur or behavioral pattern",[4],no visible changes
same,IC50,[5],14.32 µg/mL
same,Mortality and change in body weights,[6],No mortality and significant change in body weights
same,Cmax,"[7]; plasma, 10 mg/kg",41.8 ng/mL
same,Tmax,"[7]; plasma, 10 mg/kg",5 h
same,AUC(0-t),"[7]; plasma, 10 mg/kg, read-out: AUC0–24",441 ng·h/mL
same,MRT inf,"[7]; plasma, 10 mg/kg, read-out: MRT0-inf_obs",26.2 h
same,AUMC0-inf_obs,[7]; 10 mg/kg,19100.51 ng/ml*h^2
same,Cl/F_obs,[7]; 10 mg/kg,0.014 (mg)/(ng/ml)/h
same,t1/2,"[7]; 10 mg/kg, plasma",18.039 h
same,Time plasma level remained above minimum effective concentration / within therapeutic window,[7]; MEC 35 ng/mL,3 h
same,half-life,"[7]; plasma, po, 10 mg/kg",18 h
same,F,[7]; relative to DTX control,1
same,Cumulative DTX release,"[8]; 24 h, phosphate buffer, 37 °C",about 53%
same,Higuchi KH,[8]; [9],10.98
same,Hixon-Crowell KHC,[8]; [9],0.01
same,Korsmeyer-Peppas N (release exponent),[8]; [9],0.56
same,Zero Order Ko,[8]; [9],3.06
